Experimental data from ChEMBL document CHEMBL3885881, “DrugMatrix”.

Species: Rattus norvegicus
Assay: DrugMatrix - Regimen: Daily Repeat
Assay type: toxicity, organism-based, Sprague-Dawley
Parameters: regimen Daily Repeat, gender Male, age 6-8 weeks
Details: in vivo, po, 800 mg/kg, route oral GAVAGE, dose level High, vehicle .5 % CMC; for BASOPHIL / EOSINOPHIL / ERYTHROCYTE COUNT / HEMATOCRIT / HEMOGLOBIN / LEUKOCYTE COUNT / LYMPHOCYTE / MEAN CORPUSCULAR HEMOGLOBIN / MEAN CORPUSCULAR HEMOGLOBIN CONCENTRATION / MEAN CORPUSCULAR VOLUME / MONOCYTE / NEUTROPHIL / PLATELET COUNT: tissue Blood; for ALANINE AMINOTRANSFERASE / ALBUMIN / ALKALINE PHOSPHATASE / ASPARTATE AMINOTRANSFERASE / BLOOD UREA NITROGEN / CARBON DIOXIDE / CHLORIDE / CHOLESTEROL / CREATINE PHOSPHOKINASE / CREATININE / GLUCOSE / LACTATE DEHYDROGENASE / LIPASE / PHOSPHORUS / POTASSIUM / SODIUM / TOTAL BILIRUBIN / TOTAL PROTEIN / URIC ACID: tissue Plasma

Oc1ccc(O)cc1 [HYDROQUINONE]
BASOPHIL (72 h, time 3 day): 0.25%
EOSINOPHIL (72 h, time 3 day): 0.45%
ERYTHROCYTE COUNT (72 h, time 3 day): 6.72 x10E6/uL
HEMATOCRIT (72 h, time 3 day): 44.05%
HEMOGLOBIN (72 h, time 3 day): 14.5 G/DL
LEUKOCYTE COUNT (72 h, time 3 day): 7.7 x10E3/uL
LYMPHOCYTE (72 h, time 3 day): 89.1%
MEAN CORPUSCULAR HEMOGLOBIN (72 h, time 3 day): 21.6 pg
MEAN CORPUSCULAR HEMOGLOBIN CONCENTRATION (72 h, time 3 day): 32.9 G/DL
MEAN CORPUSCULAR VOLUME (72 h, time 3 day): 65.5 fL
MONOCYTE (72 h, time 3 day): 1.5%
NEUTROPHIL (72 h, time 3 day): 7.45%
PLATELET COUNT (72 h, time 3 day): 1149.5 x10E3/uL
ALANINE AMINOTRANSFERASE (72 h, time 3 day): 48 u/L
ALBUMIN (72 h, time 3 day): 4.2 G/DL
ALKALINE PHOSPHATASE (72 h, time 3 day): 309.5 u/L
ASPARTATE AMINOTRANSFERASE (72 h, time 3 day): 52 u/L
BLOOD UREA NITROGEN (72 h, time 3 day): 15.5 mg/dL
CARBON DIOXIDE (72 h, time 3 day): 23 mmol/L
CHLORIDE (72 h, time 3 day): 107.5 MEQ/L
CHOLESTEROL (72 h, time 3 day): 80.5 mg/dL
CREATINE PHOSPHOKINASE (72 h, time 3 day): 183 u/L
CREATININE (72 h, time 3 day): 0.45 mg/dL
GLUCOSE (72 h, time 3 day): 164 mg/dL
LACTATE DEHYDROGENASE (72 h, time 3 day): 102 u/L
LIPASE (72 h, time 3 day): 23.5 u/L
PHOSPHORUS (72 h, time 3 day): 13.75 mg/dL
POTASSIUM (72 h, time 3 day): 6.4 MEQ/L
SODIUM (72 h, time 3 day): 150 MEQ/L
TOTAL BILIRUBIN (72 h, time 3 day): 0.3 mg/dL
TOTAL PROTEIN (72 h, time 3 day): 6.5 G/DL
URIC ACID (72 h, time 3 day): 2.25 mg/dL
BASOPHIL (120 h, time 5 day): 0.2%
EOSINOPHIL (120 h, time 5 day): 0.3%
ERYTHROCYTE COUNT (120 h, time 5 day): 6.45 x10E6/uL
HEMATOCRIT (120 h, time 5 day): 41.5%
HEMOGLOBIN (120 h, time 5 day): 13.7 G/DL
LEUKOCYTE COUNT (120 h, time 5 day): 10.53 x10E3/uL
LYMPHOCYTE (120 h, time 5 day): 89%
MEAN CORPUSCULAR HEMOGLOBIN (120 h, time 5 day): 21.3 pg
MEAN CORPUSCULAR HEMOGLOBIN CONCENTRATION (120 h, time 5 day): 33.1 G/DL
MEAN CORPUSCULAR VOLUME (120 h, time 5 day): 64.4 fL
MONOCYTE (120 h, time 5 day): 1.6%
NEUTROPHIL (120 h, time 5 day): 6.2%
PLATELET COUNT (120 h, time 5 day): 1513 x10E3/uL
ALANINE AMINOTRANSFERASE (120 h, time 5 day): 36.5 u/L
ALBUMIN (120 h, time 5 day): 4.2 G/DL
ALKALINE PHOSPHATASE (120 h, time 5 day): 411 u/L
ASPARTATE AMINOTRANSFERASE (120 h, time 5 day): 55 u/L
BLOOD UREA NITROGEN (120 h, time 5 day): 15.5 mg/dL
CARBON DIOXIDE (120 h, time 5 day): 27 mmol/L
CHLORIDE (120 h, time 5 day): 105 MEQ/L
CHOLESTEROL (120 h, time 5 day): 70.5 mg/dL
CREATINE PHOSPHOKINASE (120 h, time 5 day): 206 u/L
CREATININE (120 h, time 5 day): 0.25 mg/dL
GLUCOSE (120 h, time 5 day): 163 mg/dL
LACTATE DEHYDROGENASE (120 h, time 5 day): 87.5 u/L
LIPASE (120 h, time 5 day): 20 u/L
PHOSPHORUS (120 h, time 5 day): 12.6 mg/dL
POTASSIUM (120 h, time 5 day): 6.1 MEQ/L
SODIUM (120 h, time 5 day): 148 MEQ/L
TOTAL BILIRUBIN (120 h, time 5 day): 0.55 mg/dL
TOTAL PROTEIN (120 h, time 5 day): 6.5 G/DL
URIC ACID (120 h, time 5 day): 2.05 mg/dL
BASOPHIL ([…], time 14 day): 0.8%
EOSINOPHIL ([…], time 14 day): 0.2%
ERYTHROCYTE COUNT ([…], time 14 day): 6.87 x10E6/uL
HEMATOCRIT ([…], time 14 day): 42.85%
HEMOGLOBIN ([…], time 14 day): 14.03 G/DL
LEUKOCYTE COUNT ([…], time 14 day): 14.3 x10E3/uL
LYMPHOCYTE ([…], time 14 day): 83.92%
MEAN CORPUSCULAR HEMOGLOBIN ([…], time 14 day): 20.45 pg
MEAN CORPUSCULAR HEMOGLOBIN CONCENTRATION ([…], time 14 day): 32.83 G/DL
MEAN CORPUSCULAR VOLUME ([…], time 14 day): 62.4 fL
MONOCYTE ([…], time 14 day): 1.9%
NEUTROPHIL ([…], time 14 day): 11.55%
PLATELET COUNT ([…], time 14 day): 1262 x10E3/uL
ALANINE AMINOTRANSFERASE ([…], time 14 day): 50 u/L
ALBUMIN ([…], time 14 day): 4.45 G/DL
ALKALINE PHOSPHATASE ([…], time 14 day): 349.75 u/L
ASPARTATE AMINOTRANSFERASE ([…], time 14 day): 70.25 u/L
BLOOD UREA NITROGEN ([…], time 14 day): 16.25 mg/dL
CARBON DIOXIDE ([…], time 14 day): 30.25 mmol/L
CHLORIDE ([…], time 14 day): 103.5 MEQ/L
CHOLESTEROL ([…], time 14 day): 84.5 mg/dL
CREATINE PHOSPHOKINASE ([…], time 14 day): 254.25 u/L
CREATININE ([…], time 14 day): 0.4 mg/dL
GLUCOSE ([…], time 14 day): 161.5 mg/dL
LACTATE DEHYDROGENASE ([…], time 14 day): 60.75 u/L
LIPASE ([…], time 14 day): 17.25 u/L
PHOSPHORUS ([…], time 14 day): 12.07 mg/dL
POTASSIUM ([…], time 14 day): 6.7 MEQ/L
SODIUM ([…], time 14 day): 150.25 MEQ/L
TOTAL BILIRUBIN ([…], time 14 day): 0.55 mg/dL
TOTAL PROTEIN ([…], time 14 day): 6.97 G/DL
URIC ACID ([…], time 14 day): 1 mg/dL
